Experiment [1] has as its target Transcriptional enhancer factor TEF-3 (Homo sapiens, UniProt Q15561). In words: Binding affinity to N-terminal His6 tagged human TEAD4-YBD (217 to 434 residues) expressed in Escherichia coli C43 (DE3) cells assessed as covalent modification by measuring change in protein mass by mass spectral analysis.
Experiment [2] addresses Fatty acid-binding protein, heart (Homo sapiens) (UniProt P05413). As to the kind of experiment: Binding affinity to FABP3 (unknown origin) at 1:1 ratio by fluorescence based thermal shift assay.
The target of experiment [3] is LIM domain kinase 1 (Homo sapiens) (UniProt P53667). As to the kind of experiment: Inhibition of recombinant human LIMK1 (285 to 638 residues) at 10 uM using cofilin as substrate measured after 40 mins in presence of [gamm33P]ATP by scintillation counting method relative to control.
Chain of LIM domain kinase 1 (Homo sapiens) (P53667 whole entry, looked up, the tested form may be a part): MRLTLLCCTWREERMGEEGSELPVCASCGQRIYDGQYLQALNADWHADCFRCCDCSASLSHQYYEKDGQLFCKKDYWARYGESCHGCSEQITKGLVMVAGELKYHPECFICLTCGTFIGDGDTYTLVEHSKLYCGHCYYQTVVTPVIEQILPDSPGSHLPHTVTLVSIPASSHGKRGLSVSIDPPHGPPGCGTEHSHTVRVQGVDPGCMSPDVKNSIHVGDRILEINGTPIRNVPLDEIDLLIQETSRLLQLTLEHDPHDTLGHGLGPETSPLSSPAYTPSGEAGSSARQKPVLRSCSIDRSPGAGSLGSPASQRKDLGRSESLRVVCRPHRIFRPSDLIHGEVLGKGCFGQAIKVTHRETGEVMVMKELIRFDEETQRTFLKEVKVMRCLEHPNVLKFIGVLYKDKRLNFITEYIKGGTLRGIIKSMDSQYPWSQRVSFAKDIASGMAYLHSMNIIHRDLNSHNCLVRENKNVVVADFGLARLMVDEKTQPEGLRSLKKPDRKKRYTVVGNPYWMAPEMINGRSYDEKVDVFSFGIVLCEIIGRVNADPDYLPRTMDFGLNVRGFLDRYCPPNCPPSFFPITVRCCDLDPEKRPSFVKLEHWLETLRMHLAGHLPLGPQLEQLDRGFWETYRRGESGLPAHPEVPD
In experiment [4] the target is Vascular endothelial growth factor receptor 2 (Homo sapiens) (UniProt P35968). In words: Inhibition of recombinant human KDR (790 to end residues) at 10 uM using myelin basic protein as substrate measured after 40 mins in presence of [gamm33P]ATP by scintillation counting method relative to control.
The target of experiment [5] is Tyrosine-protein kinase JAK3 (Homo sapiens) (UniProt P52333). In words: Inhibition of recombinant human JAK3 (781 to end residues) at 10 uM using GGEEEEYFELVKKKK as substrate measured after 40 mins in presence of [gamm33P]ATP by scintillation counting method relative to control.
The target of experiment [6] is Tyrosine-protein kinase JAK1 (Homo sapiens) (UniProt P23458). As to the kind of experiment: Inhibition of recombinant human JAK1 (866 to end residues) at 10 uM using GEEPLYWSFPAKK as substrate measured after 40 mins in presence of [gamm33P]ATP by scintillation counting method relative to control.
Experiment [7] addresses Serine/threonine-protein kinase/endoribonuclease IRE1 (Homo sapiens) (UniProt O75460). In words: Inhibition of recombinant human IRE1 (465 to end residues) at 10 uM using myelin basic protein as substrate measured after 40 mins in presence of [gamma33P]ATP by scintillation counting method relative to control.
Experiment [8] has as its target Transcription initiation factor TFIID subunit 1-like (Homo sapiens) (UniProt Q8IZX4). As to the kind of experiment: Inhibition of recombinant human TAF1L (1428 to end residues) at 10 uM using RRRFRPASPLRGPPK as substrate measured after 120 mins in presence of [gamma33P]ATP by scintillation counting method relative to control.
The target in experiment [9] is Rhodopsin kinase GRK1 (Homo sapiens) (UniProt Q15835). In words: Inhibition of full length recombinant human GRK1 at 10 uM using KKKKERLLDDRHDSGLDSMKDEE as substrate after 40 mins in presence of [gamma33P]ATP by scintillation counting method relative to control.
Chain of Rhodopsin kinase GRK1 (Homo sapiens) (Q15835 whole entry): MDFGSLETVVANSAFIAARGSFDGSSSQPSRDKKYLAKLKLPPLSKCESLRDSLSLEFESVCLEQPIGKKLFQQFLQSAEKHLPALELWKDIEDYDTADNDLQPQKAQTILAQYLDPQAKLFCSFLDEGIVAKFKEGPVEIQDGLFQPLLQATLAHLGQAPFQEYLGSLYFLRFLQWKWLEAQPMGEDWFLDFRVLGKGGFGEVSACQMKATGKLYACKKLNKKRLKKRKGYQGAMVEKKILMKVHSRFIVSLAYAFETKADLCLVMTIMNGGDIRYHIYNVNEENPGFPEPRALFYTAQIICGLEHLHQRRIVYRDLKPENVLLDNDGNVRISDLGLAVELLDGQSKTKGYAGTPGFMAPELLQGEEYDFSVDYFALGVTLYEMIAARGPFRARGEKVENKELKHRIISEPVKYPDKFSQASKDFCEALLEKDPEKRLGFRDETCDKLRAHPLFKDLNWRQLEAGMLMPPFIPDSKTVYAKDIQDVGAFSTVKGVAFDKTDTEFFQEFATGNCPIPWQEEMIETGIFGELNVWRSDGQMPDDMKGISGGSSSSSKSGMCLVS
Experiment [10] has as its target Protein kinase C beta type (Homo sapiens) (UniProt P05771). As to the kind of experiment: Inhibition of recombinant human PKCbeta2 (2 to end residues) at 10 uM using histone H1 as substrate after 40 mins by in presence of [gamma33P]ATP by scintillation counting method relative to control.
Experiment [11] has as its system RAC-gamma serine/threonine-protein kinase (Homo sapiens), Q9Y243 [S472D]. In words: Inhibition of recombinant human PKBgamma S472D mutant (117 to end residues) at 10 uM using GRPRTSSFAEGKK as substrate after 40 mins by in presence of [gamma33P]ATP by scintillation counting method relative to control.
In experiment [12] the target is Phosphatidylinositol 4-phosphate 5-kinase type-1 gamma (Homo sapiens) (UniProt O60331). As to the kind of experiment: Inhibition of recombinant full-length human PIP5K1g at 10 uM using phosphatidylinositol 4-phosphate as substrate measured after 40 mins by fluorescence assay relative to control.
The target of experiment [13] is Eukaryotic translation initiation factor 2-alpha kinase 3 (Homo sapiens) (UniProt Q9NZJ5). As to the kind of experiment: Inhibition of recombinant human PEK (536 to end residues) at 10 uM using RSRSRSRSRSRSRSR as substrate measured after 40 mins in presence of [gamma33P]ATP by scintillation counting method relative to control.
The species named for experiment [14] is Homo sapiens. In words: Inhibition of recombinant human EphB2 A848S/K918E mutant (560 to end residues) using poly (Glu, Tyr) 4:1 as substrate at 10 uM after 40 mins in presence of [gamma-33P]-ATP by scintillation counting relative to control.
In experiment [15] the target is Ephrin type-A receptor 5 (Homo sapiens) (UniProt P54756). As to the kind of experiment: Inhibition of human EPHA5 (655 to 956 residues) using poly (Glu, Tyr) 4:1 as substrate at 10 uM after 40 mins in presence of [gamma-33P]-ATP by scintillation counting relative to control.
The target of experiment [16] is Serine/threonine-protein kinase PAK 1 (Homo sapiens) (UniProt Q13153). In words: Inhibition of recombinant human PAK1 (150 to end residues) at 10 uM using RRRLSFAEPG as substrate measured after 40 mins in presence of [gamma33P]ATP by scintillation counting method relative to control.
The target in experiment [17] is CDK3/Cyclin E (Homo sapiens) (UniProt P24864+Q00526). In words: Inhibition of recombinant full-length human CDK3/cyclinE at 10 uM using histone H1 as substrate measured after 40 mins in presence of [gamma33P]ATP by scintillation counting method relative to control. Format: protein-complex assay.
Experiment [18] has as its target Tyrosine-protein kinase BTK (Homo sapiens) (UniProt Q06187). As to the kind of experiment: Inhibition of full-length recombinant human BTK at 10 uM using KVEKIGEGTYGVVYK as substrate measured after 40 mins in presence of [gamma33P]ATP by scintillation counting method relative to control.
For experiment [19], the species on record is Homo sapiens. As to the kind of experiment: Inhibition of recombinant full-length human ATRIP/ATR M211T mutant at 10 uM using GST-cMyc-p53 as substrate measured after 40 mins by fluorescence assay relative to control.
Experiment [20] concerns the target Serine-protein kinase ATM (Homo sapiens) (UniProt Q13315). As to the kind of experiment: Inhibition of recombinant full-length human ATM at 10 uM using GST-cMyc-p53 as substrate measured after 40 mins by ELISA method relative to control. A general note: In an ELISA, binding on a coated surface is turned into a signal by an enzyme label.
For experiment [21], the target named is NUAK family SNF1-like kinase 1 (Homo sapiens) (UniProt O60285). As to the kind of experiment: Inhibition of recombinant human ARK5 (2 to end residues) at 10 uM using KKKVSRSGLYRSPSMPENLNRPR as substrate measured after 40 mins in presence of [gamma33P]ATP by scintillation counting method relative to control.
The target of experiment [22] is Tyrosine-protein kinase ABL1 (Homo sapiens) (UniProt P00519). In words: Inhibition of human Abl (27 to end residues) at 10 uM using EAIYAAPFAKKK as substrate after 40 mins in presence of [gamma33P]ATP by scintillation counting method relative to control.
The target of experiment [23] is Serine/threonine-protein kinase VRK1 (Homo sapiens) (UniProt Q99986). As to the kind of experiment: Inhibition of human VRK1 at 10 uM by radiometric assay relative to control.
The target of experiment [24] is Serine-protein kinase ATM (Homo sapiens) (UniProt Q13315). In words: Inhibition of recombinant full-length human ATM at 10 uM using GST-cMyc-p53 as substrate measured after 40 mins by EIA method relative to control.
Chain of Serine-protein kinase ATM (Homo sapiens) (Q13315 whole entry): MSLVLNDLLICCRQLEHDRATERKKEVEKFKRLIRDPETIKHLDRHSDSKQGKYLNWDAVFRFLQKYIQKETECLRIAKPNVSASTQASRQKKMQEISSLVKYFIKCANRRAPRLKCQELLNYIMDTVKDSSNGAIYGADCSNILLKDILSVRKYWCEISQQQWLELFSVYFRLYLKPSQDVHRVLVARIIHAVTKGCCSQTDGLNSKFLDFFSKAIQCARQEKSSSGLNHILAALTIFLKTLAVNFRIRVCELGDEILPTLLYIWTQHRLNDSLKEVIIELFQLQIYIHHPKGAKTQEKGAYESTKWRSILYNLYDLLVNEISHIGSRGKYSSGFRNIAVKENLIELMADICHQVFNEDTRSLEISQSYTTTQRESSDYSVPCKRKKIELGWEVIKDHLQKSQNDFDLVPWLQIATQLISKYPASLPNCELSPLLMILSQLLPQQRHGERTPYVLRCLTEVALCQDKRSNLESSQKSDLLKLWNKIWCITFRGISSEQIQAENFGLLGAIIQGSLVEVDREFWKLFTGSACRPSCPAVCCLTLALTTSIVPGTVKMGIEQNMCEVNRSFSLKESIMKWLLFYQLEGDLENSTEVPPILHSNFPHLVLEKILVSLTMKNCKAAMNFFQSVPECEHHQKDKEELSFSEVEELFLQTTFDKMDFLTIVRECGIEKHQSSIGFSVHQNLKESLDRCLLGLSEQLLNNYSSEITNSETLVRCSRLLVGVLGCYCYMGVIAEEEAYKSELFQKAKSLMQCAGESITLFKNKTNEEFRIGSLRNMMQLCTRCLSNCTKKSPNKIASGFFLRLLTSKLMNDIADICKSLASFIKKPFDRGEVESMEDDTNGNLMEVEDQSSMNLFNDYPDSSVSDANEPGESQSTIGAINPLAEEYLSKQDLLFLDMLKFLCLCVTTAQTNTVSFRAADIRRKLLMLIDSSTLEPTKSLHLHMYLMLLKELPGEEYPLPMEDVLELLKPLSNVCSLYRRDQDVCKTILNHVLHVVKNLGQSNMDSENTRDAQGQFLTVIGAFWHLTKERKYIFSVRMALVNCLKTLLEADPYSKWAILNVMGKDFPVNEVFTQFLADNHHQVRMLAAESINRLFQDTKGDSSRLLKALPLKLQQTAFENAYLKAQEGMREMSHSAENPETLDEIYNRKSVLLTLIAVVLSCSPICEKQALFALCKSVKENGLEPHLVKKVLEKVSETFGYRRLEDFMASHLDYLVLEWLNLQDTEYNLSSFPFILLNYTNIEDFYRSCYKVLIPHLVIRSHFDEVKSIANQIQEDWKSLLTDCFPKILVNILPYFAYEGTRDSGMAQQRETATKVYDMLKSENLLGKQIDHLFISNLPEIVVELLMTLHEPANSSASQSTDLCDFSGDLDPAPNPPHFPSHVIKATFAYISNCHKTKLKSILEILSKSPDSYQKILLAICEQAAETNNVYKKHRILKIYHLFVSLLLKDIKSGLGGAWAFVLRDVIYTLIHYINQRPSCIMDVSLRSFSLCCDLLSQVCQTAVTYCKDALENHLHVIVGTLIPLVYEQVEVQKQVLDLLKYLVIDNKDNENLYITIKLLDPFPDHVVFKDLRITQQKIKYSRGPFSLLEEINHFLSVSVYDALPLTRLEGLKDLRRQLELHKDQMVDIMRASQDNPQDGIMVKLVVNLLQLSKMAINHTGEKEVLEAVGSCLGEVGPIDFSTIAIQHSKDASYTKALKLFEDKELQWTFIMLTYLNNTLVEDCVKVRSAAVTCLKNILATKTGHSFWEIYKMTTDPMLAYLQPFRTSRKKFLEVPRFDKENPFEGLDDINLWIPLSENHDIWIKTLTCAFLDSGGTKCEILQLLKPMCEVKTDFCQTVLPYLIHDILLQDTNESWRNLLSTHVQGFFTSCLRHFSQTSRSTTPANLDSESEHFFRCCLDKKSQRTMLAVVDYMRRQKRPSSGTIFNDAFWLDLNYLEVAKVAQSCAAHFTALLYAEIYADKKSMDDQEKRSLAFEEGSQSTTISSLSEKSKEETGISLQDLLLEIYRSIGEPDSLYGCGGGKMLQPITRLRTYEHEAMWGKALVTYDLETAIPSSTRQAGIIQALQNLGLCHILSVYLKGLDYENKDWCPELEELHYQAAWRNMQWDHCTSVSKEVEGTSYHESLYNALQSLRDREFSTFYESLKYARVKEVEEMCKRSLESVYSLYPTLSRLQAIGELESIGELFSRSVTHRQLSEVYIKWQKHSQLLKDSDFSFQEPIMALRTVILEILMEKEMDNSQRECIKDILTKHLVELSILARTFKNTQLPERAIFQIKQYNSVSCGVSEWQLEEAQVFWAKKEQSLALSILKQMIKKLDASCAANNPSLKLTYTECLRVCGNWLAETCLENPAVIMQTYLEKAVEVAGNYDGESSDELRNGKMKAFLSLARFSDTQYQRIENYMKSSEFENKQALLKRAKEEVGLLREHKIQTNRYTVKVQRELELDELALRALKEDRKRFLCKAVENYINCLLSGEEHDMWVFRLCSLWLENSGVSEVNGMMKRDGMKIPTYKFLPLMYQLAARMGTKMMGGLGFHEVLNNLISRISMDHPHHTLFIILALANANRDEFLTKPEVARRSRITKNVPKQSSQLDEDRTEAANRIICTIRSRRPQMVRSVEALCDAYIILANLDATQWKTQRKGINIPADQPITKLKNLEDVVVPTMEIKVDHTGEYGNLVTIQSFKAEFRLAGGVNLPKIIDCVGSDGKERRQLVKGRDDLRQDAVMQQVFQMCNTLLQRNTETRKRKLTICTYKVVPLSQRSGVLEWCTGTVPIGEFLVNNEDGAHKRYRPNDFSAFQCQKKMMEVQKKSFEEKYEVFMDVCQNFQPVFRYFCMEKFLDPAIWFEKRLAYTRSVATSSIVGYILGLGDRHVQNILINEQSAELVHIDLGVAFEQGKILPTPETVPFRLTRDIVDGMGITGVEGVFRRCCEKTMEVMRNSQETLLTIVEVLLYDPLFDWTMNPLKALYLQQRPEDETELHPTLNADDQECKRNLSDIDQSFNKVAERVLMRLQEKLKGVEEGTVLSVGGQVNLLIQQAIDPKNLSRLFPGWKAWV

This passage reports Activity and inhibition results from ChEMBL document CHEMBL4376829, “Discovery and biological evaluation of vinylsulfonamide derivatives as highly potent, covalent TEAD autopalmitoylation inhibitors” (Eur J Med Chem, 2019).

Usually inhibition stands for the change of the read-out against control, counted positive when it falls.

Each structure is given as a SMILES string. Active and inactive are the calls of the source. The rule behind the calls is not given here.

Chain of Protein kinase C beta type (Homo sapiens) (P05771 2-671 limits assumed): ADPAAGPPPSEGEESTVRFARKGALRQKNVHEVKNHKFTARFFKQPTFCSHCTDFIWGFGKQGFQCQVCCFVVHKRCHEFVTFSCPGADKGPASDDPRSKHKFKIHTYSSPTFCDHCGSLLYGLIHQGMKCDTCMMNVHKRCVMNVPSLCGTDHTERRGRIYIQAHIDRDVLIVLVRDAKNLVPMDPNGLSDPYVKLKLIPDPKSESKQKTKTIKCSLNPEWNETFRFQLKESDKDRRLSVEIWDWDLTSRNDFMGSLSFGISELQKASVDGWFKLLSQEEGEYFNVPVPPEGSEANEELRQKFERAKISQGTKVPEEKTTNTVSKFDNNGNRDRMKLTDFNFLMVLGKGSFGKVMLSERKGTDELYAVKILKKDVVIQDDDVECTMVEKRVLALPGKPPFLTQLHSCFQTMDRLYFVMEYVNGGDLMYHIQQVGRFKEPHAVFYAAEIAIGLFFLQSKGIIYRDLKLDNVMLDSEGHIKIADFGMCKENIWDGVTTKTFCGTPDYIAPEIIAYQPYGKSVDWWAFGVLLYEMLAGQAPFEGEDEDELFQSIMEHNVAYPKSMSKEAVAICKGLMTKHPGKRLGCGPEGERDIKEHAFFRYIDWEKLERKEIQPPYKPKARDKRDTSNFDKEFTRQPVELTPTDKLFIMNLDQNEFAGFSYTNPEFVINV
Chain of Fatty acid-binding protein, heart (Homo sapiens) (P05413 2-133 limits assumed): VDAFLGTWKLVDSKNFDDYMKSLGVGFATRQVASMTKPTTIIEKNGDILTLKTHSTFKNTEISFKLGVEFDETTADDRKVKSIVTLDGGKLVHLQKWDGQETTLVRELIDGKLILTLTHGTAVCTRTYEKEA

In the case of `C=CS(=O)(=O)Nc1ccc(Cc2ccc3ccccc3c2)cc1`, the result in experiment [1] and in experiment [2] was Active. The inhibition in [3] was -1%; in experiment [4], 2%; in [5], 5%; in [6], 7%; in experiment [7] it was -4%; in experiment [8] it was -4%. Also, the inhibition in [9] is 7%; in experiment [10], 4%; in experiment [11] it was 8%; in experiment [12], -3%; in [13], -1%; in the experiment listed under Homo sapiens [14] it was 4%. In addition, the inhibition in [15] was found to be 16%; in experiment [16], 5%; in experiment [17], 7%; in experiment [18] it was 5%; in the experiment filed under Homo sapiens [19] it was 3%; in experiment [20], 2%. For the same molecule, the inhibition amounted to 10% in experiment [21], 7% in experiment [22], 3% in experiment [23] and 2% in [24].
